This note sets out measurements from PubChem BioAssay (NCI).

Values joined by “and” are separate entries in the source; they are usually repeats but may differ in a detail not shown here. Equal values may be shown once.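 48-hour exposure; five concentrations; linearly interpolated endpoints. Here, GI50 denotes the concentration required for 50% inhibition of growth. Definition used: TGI = concentration required for complete inhibition of growth.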 A value given as a limit tells only on which side of the number the result lay.

Some test systems named below: HS 578T breast; M14 melanoma; UACC-257 melanoma; EKVX NSCLC; SW-620 colon; SR leukemia; NCI/ADR-RES ovarian; RXF 393 renal; OVCAR-8 ovarian; OVCAR-5 ovarian.
Common to all, as to assay: NCI anticancer screen, dose series, 48 h

For `CCOc1cc(C(C)(C)C)ccc1C1=N[C@H](c2ccc(Cl)cc2)[C@H](c2ccc(Cl)cc2)N1C(=O)N1CCN(CC#Cc2cccc3c2CN([C@@H]2CCC(=O)NC2=O)C3=O)CC1`, the GI50 is 0.346 µM in the assay on HS 578T breast; 1.46 µM with M14 melanoma; 1.85 µM in the assay with UACC-257 melanoma; 3.98 µM in the assay with EKVX NSCLC; 0.143 µM in the assay on SW-620 colon; 0.642 µM with SR leukemia. Further, the GI50 in the assay with NCI/ADR-RES ovarian is 1.79 µM; in the assay on RXF 393 renal it was 2.12 µM; in the assay on OVCAR-8 ovarian, 0.157 µM; with OVCAR-5 ovarian, 4.5 µM. Moreover, the TGI in the assay with HS 578T breast was above 100 µM; in the assay on M14 melanoma, above 47.3 µM; with UACC-257 melanoma, 14.8 µM; in the assay with EKVX NSCLC, above 100 µM; in the assay with SW-620 colon, above 100 µM; in the assay with SR leukemia, above 100 µM. Further, the TGI in the assay with NCI/ADR-RES ovarian was above 100 µM; in the assay on RXF 393 renal, above 51.6 µM; with OVCAR-8 ovarian it was above 31.8 µM; in the assay with OVCAR-5 ovarian it was above 54.3 µM.
As to `Oc1ccc2ccccc2c1N=Nc1cccc2ccccc12`, the TGI with HS 578T breast was > 100 µM and 77.7 µM; in the assay on M14 melanoma, above 100 µM; with UACC-257 melanoma it was above 100 µM; in the assay on EKVX NSCLC, above 100 µM; in the assay with SW-620 colon, above 100 µM; in the assay on SR leukemia, above 100 µM. For the same compound, the TGI in the assay with NCI/ADR-RES ovarian, with RXF 393 renal, in the assay with OVCAR-8 ovarian and in the assay with OVCAR-5 ovarian was above 100 µM throughout.
As for `COc1ccc2c(c1)C(=O)/C(=C/c1cccc(OCC(=O)c3ccccc3)c1)O2`, the GI50 was 13.8 µM in the assay with HS 578T breast; 18.8 µM with UACC-257 melanoma; 9.88 µM with EKVX NSCLC; 1.77 µM in the assay with SW-620 colon; 1.47 µM in the assay on SR leukemia; 8.9 µM with NCI/ADR-RES ovarian. The GI50 in the assay with RXF 393 renal was 3.26 µM; in the assay on OVCAR-8 ovarian, 16.4 µM; in the assay on OVCAR-5 ovarian, 4.31 µM. In addition, the TGI amounted to 48.1 µM in the assay on HS 578T breast; 33.5 µM in the assay on UACC-257 melanoma; 29.1 µM with EKVX NSCLC; 3.43 µM in the assay on SW-620 colon; 3.26 µM with SR leukemia; 26.4 µM in the assay on NCI/ADR-RES ovarian. The TGI in the assay on RXF 393 renal was found to be 8.01 µM; with OVCAR-8 ovarian it was 31.4 µM; in the assay on OVCAR-5 ovarian, 14.5 µM.
For the compound `CCCOC(=O)N[C@H]1CCc2c(Cl)c(OC)c(OC)c(OC)c2-c2ccc(SC)c(=O)cc21`, the GI50 in the assay on HS 578T breast is below 0.01 µM; in the assay with M14 melanoma, below 0.01 µM; with UACC-257 melanoma, 7.46 µM; in the assay on EKVX NSCLC, below 0.01 µM; with SW-620 colon, below 0.01 µM; with SR leukemia it was below 0.01 µM. Besides, the GI50 in the assay with NCI/ADR-RES ovarian is 0.0269 µM; in the assay with RXF 393 renal, below 0.01 µM; with OVCAR-8 ovarian, below 0.0122 µM; with OVCAR-5 ovarian, below 0.013 µM. Moreover, the TGI was 20.6 µM with HS 578T breast; 4.47 µM with M14 melanoma; 37.5 µM in the assay on UACC-257 melanoma; above 100 µM in the assay on EKVX NSCLC; above 52.5 µM with SW-620 colon; 19.2 µM in the assay with SR leukemia. Further, the TGI in the assay with NCI/ADR-RES ovarian was 21.6 µM; in the assay on RXF 393 renal, 8.41 µM; in the assay with OVCAR-8 ovarian it was above 100 µM; with OVCAR-5 ovarian it was above 76.7 µM.
For the compound `Cc1nnc(-c2ccc(C)c(-c3ccc(C(=O)Nc4cccc(C#N)c4)cc3)c2)o1`, the GI50 in the assay with HS 578T breast, in the assay with M14 melanoma, in the assay with UACC-257 melanoma, with EKVX NSCLC, in the assay with SW-620 colon and in the assay on SR leukemia was above 25 µM throughout. The GI50 in the assay with NCI/ADR-RES ovarian, in the assay with RXF 393 renal, in the assay with OVCAR-8 ovarian and in the assay with OVCAR-5 ovarian was above 25 µM in each case. Also, the TGI in the assay on HS 578T breast, in the assay with M14 melanoma, in the assay on UACC-257 melanoma, in the assay with EKVX NSCLC, with SW-620 colon and with SR leukemia was above 25 µM throughout. In addition, the TGI with NCI/ADR-RES ovarian, with RXF 393 renal, in the assay on OVCAR-8 ovarian and in the assay with OVCAR-5 ovarian was above 25 µM each time.
Regarding `O=C1C(=O)c2ccccc2C(O)=C1C(C1=C(O)c2ccccc2C(=O)C1=O)c1ccc(Cl)cc1`, the TGI in the assay on HS 578T breast is 66.4 µM; with M14 melanoma, 23.7 µM; in the assay on UACC-257 melanoma, 17 µM; in the assay with EKVX NSCLC, 32.1 µM; with SW-620 colon it was above 73.7 µM; in the assay on SR leukemia, 24.7 µM. Further, the TGI in the assay on NCI/ADR-RES ovarian was above 77.5 µM; in the assay on RXF 393 renal, 18.4 µM; with OVCAR-8 ovarian, 30.1 µM; with OVCAR-5 ovarian it was 17.3 µM.
